Columns and labels:
Assay in all cases: relative viability (nuclei count vs DMSO), 5 days (fraction); higher = more cells survive
NCI-H1355 = test system: NCI-H1355
How it was run: (§1)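 Relative viability divides the nuclei count in treated wells by that in vehicle wells. Lung cancer cell lines were seeded in 1536-well plates, dosed by pin tool the next day, and fixed and stained after 5 days in one step with final 0.05% Triton X-100, 1% formaldehyde and 1 ug/ml Hoechst. Dosing was a single drug or a fixed anchor-drug dose plus five library-drug doses (not always all listed) in √10 steps, and values are medians of duplicate plates imaged at 4×.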

UMC-11 = test system: UMC-11
How it was run: as §1

RERF-LC-KJ = test system: RERF-LC-KJ
How it was run: as §1

HCC-78 = test system: HCC-78
How it was run: as §1

SW 1573 = test system: SW 1573
How it was run: as §1

EPLC-272H = test system: EPLC-272H
How it was run: as §1

NCI-H1755 = test system: NCI-H1755
How it was run: as §1

NCI-H1993 = test system: NCI-H1993
How it was run: as §1

HARA = test system: HARA
How it was run: as §1

NCI-H596 = test system: NCI-H596
How it was run: as §1

NCI-H838 = test system: NCI-H838
How it was run: as §1

COR-L 105 = test system: COR-L 105
How it was run: as §1

SK-MES-1 = test system: SK-MES-1
How it was run: as §1

NCI-H1975 = test system: NCI-H1975
How it was run: as §1

NCI-H2228 = test system: NCI-H2228
How it was run: as §1

HCC-366 = test system: HCC-366
How it was run: as §1

PC-3 [JPC-3] = test system: PC-3 [JPC-3]
How it was run: as §1

NCI-H520 = test system: NCI-H520
How it was run: as §1

HCC-827 = test system: HCC-827
How it was run: as §1

LCLC-103H = test system: LCLC-103H
How it was run: as §1

HCC-44 = test system: HCC-44
How it was run: as §1

LOU-NH91 = test system: LOU-NH91
How it was run: as §1

NCI-H1651 = test system: NCI-H1651
How it was run: as §1

NCI-H2170 = test system: NCI-H2170
How it was run: as §1

NCI-H1793 = test system: NCI-H1793
How it was run: as §1

Structure (SMILES): Nc1cccc2c1CN(C1CCC(=O)NC1=O)C2=O (stereo not drawn) [Lenalidomide] + CC(=O)Nc1cccc(-n2c(=O)n(C3CC3)c(=O)c3c(Nc4ccc(I)cc4F)n(C)c(=O)c(C)c32)c1 [Trametinib] (partner 0.02 µM)
- relative viability (NCI-H1355; first compound 0.253 µM): 0.431
- relative viability (NCI-H1355; first compound 0.8 µM): 0.316
- relative viability (NCI-H1355; first compound 2.53 µM): 0.402
- relative viability (NCI-H1355; first compound 8 µM): 0.267
- relative viability (UMC-11; first compound 0.253 µM): 0.514
- relative viability (UMC-11; first compound 0.8 µM): 0.449
- relative viability (UMC-11; first compound 2.53 µM): 0.885
- relative viability (UMC-11; first compound 8 µM): 0.472
- relative viability (RERF-LC-KJ; first compound 0.253 µM): 0.875
- relative viability (RERF-LC-KJ; first compound 0.8 µM): 0.886
- relative viability (RERF-LC-KJ; first compound 2.53 µM): 0.915
- relative viability (RERF-LC-KJ; first compound 8 µM): 0.85
- relative viability (HCC-78; first compound 0.253 µM): 0.728
- relative viability (HCC-78; first compound 0.8 µM): 0.633
- relative viability (HCC-78; first compound 2.53 µM): 0.692
- relative viability (HCC-78; first compound 8 µM): 0.822
- relative viability (SW 1573; first compound 0.253 µM): 0.583
- relative viability (SW 1573; first compound 0.8 µM): 0.67
- relative viability (SW 1573; first compound 2.53 µM): 0.583
- relative viability (SW 1573; first compound 8 µM): 0.596
- relative viability (EPLC-272H; first compound 0.253 µM): 0.284
- relative viability (EPLC-272H; first compound 0.8 µM): 0.272
- relative viability (EPLC-272H; first compound 2.53 µM): 0.34
- relative viability (EPLC-272H; first compound 8 µM): 0.313
- relative viability (NCI-H1755; first compound 0.253 µM): 0.729
- relative viability (NCI-H1755; first compound 0.8 µM): 0.806
- relative viability (NCI-H1755; first compound 2.53 µM): 0.766
- relative viability (NCI-H1755; first compound 8 µM): 0.63
- relative viability (NCI-H1993; first compound 0.253 µM): 0.491
- relative viability (NCI-H1993; first compound 0.8 µM): 0.503
- relative viability (NCI-H1993; first compound 2.53 µM): 0.474
- relative viability (NCI-H1993; first compound 8 µM): 0.518
- relative viability (HARA; first compound 0.253 µM): 0.715
- relative viability (HARA; first compound 2.53 µM): 0.542
- relative viability (HARA; first compound 8 µM): 1.04
- relative viability (NCI-H596; first compound 0.253 µM): 0.73
- relative viability (NCI-H596; first compound 0.8 µM): 0.83
- relative viability (NCI-H596; first compound 2.53 µM): 0.938
- relative viability (NCI-H596; first compound 8 µM): 0.766
- relative viability (NCI-H838; first compound 0.253 µM): 0.517
- relative viability (NCI-H838; first compound 0.8 µM): 0.463
- relative viability (NCI-H838; first compound 2.53 µM): 0.625
- relative viability (NCI-H838; first compound 8 µM): 0.378
- relative viability (COR-L 105; first compound 0.253 µM): 0.493
- relative viability (COR-L 105; first compound 0.8 µM): 0.471
- relative viability (COR-L 105; first compound 2.53 µM): 0.462
- relative viability (COR-L 105; first compound 8 µM): 0.416
- relative viability (SK-MES-1; first compound 0.253 µM): 0.599
- relative viability (SK-MES-1; first compound 0.8 µM): 0.628
- relative viability (SK-MES-1; first compound 2.53 µM): 0.568
- relative viability (SK-MES-1; first compound 8 µM): 0.578
- relative viability (NCI-H1975; first compound 0.253 µM): 0.388
- relative viability (NCI-H1975; first compound 0.8 µM): 0.201
- relative viability (NCI-H1975; first compound 2.53 µM): 0.36
- relative viability (NCI-H1975; first compound 8 µM): 0.234
- relative viability (NCI-H2228; first compound 0.253 µM): 0.629
- relative viability (NCI-H2228; first compound 0.8 µM): 0.315
- relative viability (NCI-H2228; first compound 2.53 µM): 0.695
- relative viability (NCI-H2228; first compound 8 µM): 0.363
- relative viability (HCC-366; first compound 0.253 µM): 0.33
- relative viability (HCC-366; first compound 0.8 µM): 0.353
- relative viability (HCC-366; first compound 2.53 µM): 0.386
- relative viability (HCC-366; first compound 8 µM): 0.264
- relative viability (PC-3 [JPC-3]; first compound 0.253 µM): 0.705
- relative viability (PC-3 [JPC-3]; first compound 0.8 µM): 0.681
- relative viability (PC-3 [JPC-3]; first compound 2.53 µM): 0.731
- relative viability (PC-3 [JPC-3]; first compound 8 µM): 0.743
- relative viability (NCI-H520; first compound 0.253 µM): 0.732
- relative viability (NCI-H520; first compound 0.8 µM): 0.615
- relative viability (NCI-H520; first compound 2.53 µM): 0.835
- relative viability (NCI-H520; first compound 8 µM): 0.452
- relative viability (HCC-827; first compound 0.253 µM): 0.462
- relative viability (HCC-827; first compound 0.8 µM): 0.594
- relative viability (HCC-827; first compound 2.53 µM): 0.518
- relative viability (HCC-827; first compound 8 µM): 0.52
- relative viability (LCLC-103H; first compound 0.253 µM): 0.687
- relative viability (LCLC-103H; first compound 0.8 µM): 0.623
- relative viability (LCLC-103H; first compound 2.53 µM): 0.656
- relative viability (LCLC-103H; first compound 8 µM): 0.617
- relative viability (HCC-44; first compound 0.253 µM): 1.08
- relative viability (HCC-44; first compound 0.8 µM): 0.829
- relative viability (HCC-44; first compound 2.53 µM): 1.11
- relative viability (HCC-44; first compound 8 µM): 1.05
- relative viability (LOU-NH91; first compound 0.253 µM): 0.786
- relative viability (LOU-NH91; first compound 0.8 µM): 0.78
- relative viability (LOU-NH91; first compound 2.53 µM): 0.771
- relative viability (LOU-NH91; first compound 8 µM): 0.679
- relative viability (NCI-H1651; first compound 0.253 µM): 0.79
- relative viability (NCI-H1651; first compound 0.8 µM): 0.932
- relative viability (NCI-H1651; first compound 2.53 µM): 0.902
- relative viability (NCI-H1651; first compound 8 µM): 0.82
- relative viability (NCI-H2170; first compound 0.253 µM): 0.933
- relative viability (NCI-H2170; first compound 0.8 µM): 0.886
- relative viability (NCI-H2170; first compound 2.53 µM): 0.954
- relative viability (NCI-H2170; first compound 8 µM): 0.823
- relative viability (NCI-H1793; first compound 0.253 µM): 0.458
- relative viability (NCI-H1793; first compound 2.53 µM): 0.474
- relative viability (NCI-H1793; first compound 8 µM): 0.451

— the supplement of paper PMC10307832
